Measurements as given in ChEMBL document CHEMBL2331514, “Structure-based design and synthesis of novel pseudosaccharine derivatives as antiproliferative agents and kinase inhibitors” (Eur J Med Chem, 2013).

Experiments:
MCF7 [1] = test: Cell cycle arrest in human MCF7 cells assessed as accumulation at G2/M phase at 10 uM after 24 hrs by propidium iodide staining-based FACS analysis (reference value: 4.80 %); type: functional
MCF7 [2] = test: Cell cycle arrest in human MCF7 cells assessed as accumulation at S phase at 10 uM after 24 hrs by propidium iodide staining-based FACS analysis (reference value: 36.60 %); type: functional
MCF7 [3] = test: Cell cycle arrest in human MCF7 cells assessed as accumulation at G1 phase at 10 uM after 24 hrs by propidium iodide staining-based FACS analysis (reference value: 58.50 %); type: functional
MCF7 [4] = test: Cell cycle arrest in human MCF7 cells assessed as accumulation at G0 phase at 10 uM after 24 hrs by propidium iodide staining-based FACS analysis (reference value: 1.30 %); type: functional
[5] = Partition coefficient, log P of the compound; type: physicochemical; conditions: octanol/water
[6] = target: Serine/threonine-protein kinase B-raf (Homo sapiens) (UniProt P15056); test: Inhibition of B-Raf kinase (unknown origin) using [33P]-ATP at 10 uM after 20 to 40 mins by scintillation counting analysis
[7] = target: Proto-oncogene tyrosine-protein kinase Src (Homo sapiens) (UniProt P12931); test: Inhibition of Src kinase (unknown origin) using [33P]-ATP at 10 uM after 20 to 40 mins by scintillation counting analysis
[8] = target: Tyrosine-protein kinase ZAP-70 (Homo sapiens) (UniProt P43403); test: Inhibition of ZAP-70 kinase (unknown origin) using [33P]-ATP at 10 uM after 20 to 40 mins by scintillation counting analysis
MDA-MB-468 = test: Cytotoxicity against human MDA-MB-468 cells after 48 hrs by SRB assay; type: functional; conditions: MDA-MB-468, 48 h
T47D = test: Cytotoxicity against human T47D cells after 48 hrs by SRB assay; type: functional
BT-549 = test: Cytotoxicity against human BT549 cells after 48 hrs by SRB assay; type: functional; conditions: BT-549, 48 h, pooled result: one value given for 51 cell lines, strains, targets or settings
MCF7 [9] = test: Cytotoxicity against human MCF7 cells after 48 hrs by SRB assay; type: functional; conditions: MCF7, 48 h
PC-3 = test: Cytotoxicity against human PC3 cells after 48 hrs by SRB assay; type: functional; conditions: PC-3, 48 h
SF-295 = test: Cytotoxicity against human SF295 cells after 48 hrs by SRB assay; type: functional; conditions: SF-295, 48 h
NCI-H23 [10] = test: Cytotoxicity against human NCI-H23 cells after 48 hrs by SRB assay; type: functional; conditions: NCI-H23, 48 h
RPMI-8226 = test: Cytotoxicity against human RPMI8226 cells after 48 hrs by SRB assay; type: functional; conditions: RPMI-8226, 48 h
Hs-578T = test: Cytotoxicity against human Hs578T cells assessed as growth inhibition at 10 uM after 48 hrs by SRB assay; type: functional; conditions: read-out: GI
UO-31 = test: Cytotoxicity against human UO31 cells assessed as growth inhibition at 10 uM after 48 hrs by SRB assay; type: functional; conditions: UO-31, 48 h, read-out: GI
RXF 393 = test: Cytotoxicity against human RXF393 cells assessed as growth inhibition at 10 uM after 48 hrs by SRB assay; type: functional; conditions: RXF 393, 48 h, read-out: GI
A498 = test: Cytotoxicity against human A498 cells assessed as growth inhibition at 10 uM after 48 hrs by SRB assay; type: functional; conditions: A498, 48 h, read-out: GI
786-0 = test: Cytotoxicity against human 786-0 cells assessed as growth inhibition at 10 uM after 48 hrs by SRB assay; type: functional; conditions: 786-0, 48 h, read-out: GI
SK-OV-3 = test: Cytotoxicity against human SKOV3 cells assessed as growth inhibition at 10 uM after 48 hrs by SRB assay; type: functional; conditions: SK-OV-3, 48 h, read-out: GI
OVCAR-8 = test: Cytotoxicity against human OVCAR8 cells assessed as growth inhibition at 10 uM after 48 hrs by SRB assay; type: functional; conditions: OVCAR-8, 48 h, read-out: GI
UACC-257 = test: Cytotoxicity against human UACC257 cells assessed as growth inhibition at 10 uM after 48 hrs by SRB assay; type: functional; conditions: UACC-257, 48 h, read-out: GI
Malme-3M = test: Cytotoxicity against human MALME-3M cells assessed as growth inhibition at 10 uM after 48 hrs by SRB assay; type: functional; conditions: read-out: GI
SNB-19 = test: Cytotoxicity against human SNB19 cells assessed as growth inhibition at 10 uM after 48 hrs by SRB assay; type: functional; conditions: SNB-19, 48 h, read-out: GI
SF-539 = test: Cytotoxicity against human SF539 cells assessed as growth inhibition at 10 uM after 48 hrs by SRB assay; type: functional; conditions: SF-539, 48 h, read-out: GI
SF-268 = test: Cytotoxicity against human SF268 cells assessed as growth inhibition at 10 uM after 48 hrs by SRB assay; type: functional; conditions: SF-268, 48 h, read-out: GI
SW-620 = test: Cytotoxicity against human SW620 cells assessed as growth inhibition at 10 uM after 48 hrs by SRB assay; type: functional; conditions: SW-620, 48 h, read-out: GI
HCT-15 = test: Cytotoxicity against human HCT15 cells assessed as growth inhibition at 10 uM after 48 hrs by SRB assay; type: functional; conditions: HCT-15, 48 h, read-out: GI
HCT-116 = test: Cytotoxicity against human HCT116 cells assessed as growth inhibition at 10 uM after 48 hrs by SRB assay; type: functional; conditions: HCT-116, 48 h, read-out: GI
HCC 2998 = test: Cytotoxicity against human HCC2998 cells assessed as growth inhibition at 10 uM after 48 hrs by SRB assay; type: functional; conditions: HCC 2998, 48 h, read-out: GI
COLO 205 = test: Cytotoxicity against human COLO205 cells assessed as growth inhibition at 10 uM after 48 hrs by SRB assay; type: functional; conditions: COLO 205, 48 h, read-out: GI
NCI-H322M = test: Cytotoxicity against human NCI-H322M cells assessed as growth inhibition at 10 uM after 48 hrs by SRB assay; type: functional; conditions: read-out: GI
NCI-H23 [11] = test: Cytotoxicity against human NCI-H23 cells assessed as growth inhibition at 10 uM after 48 hrs by SRB assay; type: functional; conditions: NCI-H23, 48 h, read-out: GI
HOP-62 = test: Cytotoxicity against human HOP62 cells assessed as growth inhibition at 10 uM after 48 hrs by SRB assay; type: functional; conditions: HOP-62, 48 h, read-out: GI
[12] = Cytotoxicity against human EKVX cells assessed as growth inhibition at 10 uM after 48 hrs by SRB assay; type: functional; conditions: read-out: GI
[13] = read-out: LC50 (the source's name)

Sequence of Proto-oncogene tyrosine-protein kinase Src (Homo sapiens) (P12931 2-536 limits assumed): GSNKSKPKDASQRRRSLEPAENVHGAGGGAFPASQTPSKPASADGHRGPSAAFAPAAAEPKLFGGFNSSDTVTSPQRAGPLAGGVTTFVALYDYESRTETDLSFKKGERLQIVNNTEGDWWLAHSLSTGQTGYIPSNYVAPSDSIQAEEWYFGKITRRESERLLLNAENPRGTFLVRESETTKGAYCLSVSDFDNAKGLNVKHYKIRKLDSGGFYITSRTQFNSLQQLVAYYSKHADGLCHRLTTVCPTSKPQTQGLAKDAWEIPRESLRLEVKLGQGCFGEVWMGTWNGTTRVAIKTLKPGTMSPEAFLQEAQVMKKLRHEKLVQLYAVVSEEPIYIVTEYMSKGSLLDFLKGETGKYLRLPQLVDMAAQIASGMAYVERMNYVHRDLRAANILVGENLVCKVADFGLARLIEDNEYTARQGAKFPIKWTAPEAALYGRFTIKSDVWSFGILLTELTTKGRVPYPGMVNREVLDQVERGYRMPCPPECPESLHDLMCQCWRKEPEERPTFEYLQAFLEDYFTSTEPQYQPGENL
Sequence of Serine/threonine-protein kinase B-raf (Homo sapiens) (P15056 whole entry): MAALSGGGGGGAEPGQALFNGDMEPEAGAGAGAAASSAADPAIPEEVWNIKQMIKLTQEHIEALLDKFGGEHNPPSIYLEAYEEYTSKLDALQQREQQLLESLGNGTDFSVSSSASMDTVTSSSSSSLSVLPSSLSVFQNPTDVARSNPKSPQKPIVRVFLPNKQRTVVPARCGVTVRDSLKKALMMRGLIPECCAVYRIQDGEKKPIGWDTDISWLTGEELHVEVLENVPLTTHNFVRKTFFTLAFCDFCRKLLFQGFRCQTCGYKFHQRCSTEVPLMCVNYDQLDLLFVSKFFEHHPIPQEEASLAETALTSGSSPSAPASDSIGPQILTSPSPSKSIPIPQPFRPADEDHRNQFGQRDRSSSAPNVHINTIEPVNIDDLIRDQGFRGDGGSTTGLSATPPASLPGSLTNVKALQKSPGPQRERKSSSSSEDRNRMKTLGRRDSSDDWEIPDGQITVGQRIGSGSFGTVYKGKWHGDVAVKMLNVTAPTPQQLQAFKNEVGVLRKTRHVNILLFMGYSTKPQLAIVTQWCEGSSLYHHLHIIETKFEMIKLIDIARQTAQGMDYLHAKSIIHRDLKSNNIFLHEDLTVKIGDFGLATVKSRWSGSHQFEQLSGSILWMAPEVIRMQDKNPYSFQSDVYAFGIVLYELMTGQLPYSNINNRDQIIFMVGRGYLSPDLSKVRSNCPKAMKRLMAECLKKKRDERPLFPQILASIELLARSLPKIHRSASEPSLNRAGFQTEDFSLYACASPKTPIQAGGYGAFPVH
Sequence of Tyrosine-protein kinase ZAP-70 (Homo sapiens) (P43403 whole entry): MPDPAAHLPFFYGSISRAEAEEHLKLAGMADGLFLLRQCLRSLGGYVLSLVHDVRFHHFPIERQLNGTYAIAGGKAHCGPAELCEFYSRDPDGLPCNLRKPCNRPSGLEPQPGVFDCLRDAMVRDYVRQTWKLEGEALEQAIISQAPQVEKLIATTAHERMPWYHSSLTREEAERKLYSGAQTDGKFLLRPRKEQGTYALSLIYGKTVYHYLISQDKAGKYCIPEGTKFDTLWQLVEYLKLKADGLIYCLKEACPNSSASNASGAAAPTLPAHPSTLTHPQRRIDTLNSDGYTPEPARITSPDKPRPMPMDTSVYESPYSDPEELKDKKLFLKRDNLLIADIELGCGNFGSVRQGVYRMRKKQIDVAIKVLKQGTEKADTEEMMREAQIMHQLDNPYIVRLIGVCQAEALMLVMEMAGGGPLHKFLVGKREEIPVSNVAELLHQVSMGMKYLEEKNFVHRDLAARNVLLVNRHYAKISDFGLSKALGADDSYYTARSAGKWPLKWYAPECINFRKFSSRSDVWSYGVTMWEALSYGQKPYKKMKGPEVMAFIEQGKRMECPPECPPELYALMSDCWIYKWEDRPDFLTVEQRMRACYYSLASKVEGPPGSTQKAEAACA

O=C(Nc1ccc(Cl)cc1)Nc1ccc2c(c1)C(Nc1ccc(Cl)cc1Cl)=NS2(=O)=O
Activity (MCF7 [1]): 6.4% | Activity (MCF7 [2]): 15.2% | Activity (MCF7 [3]): 78.3% | Activity (MCF7 [4]): 1.4% | logP [5]: 4.24 | inhibition [6]: -8% | inhibition [7]: 58% | inhibition [8]: 13% | GI50 (MDA-MB-468): 2.75 µM | TGI (MDA-MB-468): > 100 µM | CC50 (MDA-MB-468; [13]): > 100 µM | GI50 (T47D): 2.63 µM | TGI (T47D): > 100 µM | CC50 (T47D; [13]): > 100 µM | GI50 (BT-549): 5.7 µM | GI50 (MCF7 [9]): 3.6 µM | GI50 (PC-3): 2.82 µM | TGI (PC-3): > 100 µM | CC50 (PC-3; [13]): > 100 µM | GI50 (SF-295): 2.88 µM | TGI (SF-295): > 100 µM | CC50 (SF-295; [13]): > 100 µM | GI50 (NCI-H23 [10]): 2.69 µM | TGI (NCI-H23 [10]): 12.3 µM | CC50 (NCI-H23 [10]; [13]): > 100 µM | GI50 (RPMI-8226): 2.19 µM | TGI (RPMI-8226): 15.5 µM | CC50 (RPMI-8226; [13]): > 100 µM | inhibition of growth at 10 µM (Hs-578T): 9% | inhibition of growth at 10 µM (UO-31): 70% | inhibition of growth at 10 µM (RXF 393): 15% | inhibition of growth at 10 µM (A498): 68% | inhibition of growth at 10 µM (786-0): 73% | inhibition of growth at 10 µM (SK-OV-3): 15% | inhibition of growth at 10 µM (OVCAR-8): 65% | inhibition of growth at 10 µM (UACC-257): 38% | inhibition of growth at 10 µM (Malme-3M): 58% | inhibition of growth at 10 µM (SNB-19): 64% | inhibition of growth at 10 µM (SF-539): 42% | inhibition of growth at 10 µM (SF-268): 40% | inhibition of growth at 10 µM (SW-620): 69% | inhibition of growth at 10 µM (HCT-15): 76% | inhibition of growth at 10 µM (HCT-116): 91% | inhibition of growth at 10 µM (HCC 2998): 72% | inhibition of growth at 10 µM (COLO 205): 77% | inhibition of growth at 10 µM (NCI-H322M): 27% | inhibition of growth at 10 µM (NCI-H23 [11]): 92% | inhibition of growth at 10 µM (HOP-62): 33% | inhibition of growth at 10 µM [12]: 71%
